Results taken from ChEMBL document CHEMBL3407483, “Novel 3-nitrotriazole-based amides and carbinols as bifunctional antichagasic agents” (J Med Chem, 2015).
The source made the active and inactive calls. The calls are words filed in the database; no cut-off is given here.

Columns and labels:
[1] = Selectivity index, ratio of IC50 for rat L6 cells to IC50 for amastigote stage of Trypanosoma cruzi Tulahuen C4 infected in rat L6 cells; type: toxicity, cell-based; conditions: read-out: Ratio IC50
Trypanosoma cruzi [2] = test: Antitrypanosomal activity against amastigote stage of Trypanosoma cruzi Tulahuen C4 infected in rat L6 cells assessed as parasite growth inhibition after 96 hrs by colorimetric analysis; type: functional, organism-based; conditions: Tulahuen C4, L6, 96 h
[3] = test system: Trypanosoma brucei rhodesiense; test: Antitrypanosomal activity against trypomastigote stage of Trypanosoma brucei rhodesiense STIB 900 assessed as parasite growth inhibition after 72 hrs by Alamar Blue assay; type: functional, organism-based; conditions: STIB 900, 72 h
L6 = test: Cytotoxicity against rat L6 cells assessed as growth inhibition after 72 hrs by Alamar Blue assay; type: cell-based; conditions: L6, 72 h
Trypanosoma cruzi [4] = test: Antichagasic activity against trypomastigote stage of Trypanosoma cruzi Brazil infected in Balb/c mouse assessed as reduction of parasite index at 15 mg/kg/day, ip measured after 10 days by luciferase reporter gene assay relative to control; type: functional; set-up: scale not given: the % may be the effect or the level left; conditions: route intraperitoneal
Trypanosoma cruzi [5] = test: Antichagasic activity against trypomastigote stage of Trypanosoma cruzi Brazil infected in Balb/c mouse assessed as parasite index at 15 mg/kg/day, ip measured after 5 days by luciferase reporter gene assay; type: functional; conditions: route intraperitoneal
Trypanosoma cruzi [6] = test: Activity of his-tagged recombinant Trypanosoma cruzi type-1 nitroreductase assessed as oxidized NADH level per mg of protein after 5 mins by absorption spectrum analysis
Trypanosoma brucei = test: Activity of his-tagged recombinant Trypanosoma brucei type-1 nitroreductase assessed as oxidized NADH level per mg of protein after 5 mins by absorption spectrum analysis
Mus musculus [7] = test: Toxicity in Balb/c mouse at 15 mg/kg/day, ip measured after 5 to 10 days; type: organism-based; set-up: route intraperitoneal; conditions: in vivo
[8] = Selectivity index, ratio of IC50 for rat L6 cells to IC50 for trypomastigote stage of Trypanosoma brucei rhodesiense STIB 900; type: toxicity, cell-based; conditions: read-out: Ratio IC50
[9] = Metabolic stability in mouse microsomes assessed as compound remaining at 1 uM after 60 mins by LC/MS/MS analysis in presence of NADPH; type: ADME, Microsome; conditions: read-out: Stability
[10] = Metabolic stability in human microsomes assessed as compound remaining at 1 uM after 60 mins by LC/MS/MS analysis in presence of NADPH; type: ADME, Microsome; conditions: read-out: Stability
[11] = Metabolic stability in human microsomes assessed as compound remaining at 1 uM after 60 mins by LC/MS/MS analysis in absence of NADPH; type: ADME, Microsome; conditions: read-out: Stability
Trypanosoma cruzi [12] = test: Antichagasic activity against trypomastigote stage of Trypanosoma cruzi Brazil infected in Balb/c mouse assessed as reduction of parasite level at 15 mg/kg/day, ip measured after 5 days by luciferase reporter gene assay; type: functional, organism-based
[13] = test system: Trypanosoma brucei brucei; test: Selectivity ratio of IC50 for bloodstream form of Trypanosoma brucei brucei to IC50 for bloodstream form of Trypanosoma brucei brucei overexpressing type-1 nitroreductase; type: functional
[14] = test system: Trypanosoma brucei brucei; test: Antitrypanosomal activity against bloodstream form of Trypanosoma brucei brucei; type: functional, organism-based
[15] = Metabolic stability in mouse microsomes assessed as compound remaining at 1 uM after 60 mins by LC/MS/MS analysis in absence of NADPH; type: ADME, Microsome; conditions: read-out: Stability
[16] = test system: Trypanosoma brucei brucei; test: Antitrypanosomal activity against bloodstream form of Trypanosoma brucei brucei overexpressing type-1 nitroreductase; type: functional, organism-based
[17] = Apparent permeability across apical to basolateral side in human Caco2 cells at 10 uM after 2 hrs by LC/MS/MS analysis; type: ADME, cell-based; conditions: caco-2, 2 h
[18] = target: Sterol 14-alpha demethylase (Trypanosoma cruzi (strain CL Brener), UniProt Q7Z1V1); test: Binding affinity to recombinant full-length Trypanosoma cruzi CYP51 by UV-spectrophotometric analysis; conditions: read-out: Kd(app)
Trypanosoma cruzi [19] = test: Potency index, ratio of benznidazole IC50 to compound IC50 for amastigote stage of Trypanosoma cruzi Tulahuen C4 infected in rat L6 cells; type: functional
Mus musculus [20] = test: Toxicity in Balb/c mouse at 13 mg/kg/day, ip measured after 5 to 10 days; type: organism-based; set-up: route intraperitoneal; conditions: in vivo
Trypanosoma cruzi [21] = test: Antichagasic activity against trypomastigote stage of Trypanosoma cruzi Brazil infected in Balb/c mouse assessed as reduction of parasite level at 13 mg/kg/day, ip measured after 5 days by luciferase reporter gene assay; type: functional, organism-based
Trypanosoma cruzi [22] = test: Antichagasic activity against trypomastigote stage of Trypanosoma cruzi Brazil infected in Balb/c mouse assessed as reduction of parasite index at 13 mg/kg/day, ip measured after 10 days by luciferase reporter gene assay relative to control; type: functional; set-up: scale not given: the % may be the effect or the level left; conditions: route intraperitoneal

Sequence of Sterol 14-alpha demethylase (Q7Z1V1 whole entry): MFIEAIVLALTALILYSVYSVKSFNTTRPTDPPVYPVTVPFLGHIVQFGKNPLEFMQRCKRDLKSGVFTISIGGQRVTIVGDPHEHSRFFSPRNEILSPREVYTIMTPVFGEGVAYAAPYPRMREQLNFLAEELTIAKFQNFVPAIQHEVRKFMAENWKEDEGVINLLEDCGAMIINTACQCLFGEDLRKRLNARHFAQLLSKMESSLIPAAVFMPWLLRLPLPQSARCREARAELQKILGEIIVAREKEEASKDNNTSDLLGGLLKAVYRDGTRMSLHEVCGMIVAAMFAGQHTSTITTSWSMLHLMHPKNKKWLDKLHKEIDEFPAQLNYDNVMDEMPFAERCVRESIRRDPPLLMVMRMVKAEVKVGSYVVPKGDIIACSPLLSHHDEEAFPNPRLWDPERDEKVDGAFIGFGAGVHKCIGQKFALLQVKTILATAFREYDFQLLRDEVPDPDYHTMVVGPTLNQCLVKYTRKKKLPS

| Compound | selectivity ratio [1] | IC50 (Trypanosoma cruzi [2]) [µM] | IC50 [3] [µM] | IC50 (L6) [µM] | selectivity ratio [8] | further results |
| --- | --- | --- | --- | --- | --- | --- |
| O=C(Cn1cnc([N+](=O)[O-])n1)Nc1nc(-c2ccc(F)c(F)c2)cs1 | 192 | 0.459 | 16.1 | 88.1 |  |  |
| O=C(Cn1ccnc1[N+](=O)[O-])NCc1ccccc1 [BENZNIDAZOLE] |  |  |  |  |  | Activity (Trypanosoma cruzi [4]): <4%; Activity (Trypanosoma cruzi [5]): 13.38; Activity (Trypanosoma cruzi [6]): 680 nmol/min; Activity (Trypanosoma brucei): 1540 nmol/min; Activity (Mus musculus [7]): Non-toxic |
| CC(O)(Cn1cnc([N+](=O)[O-])n1)c1ccc(-n2ccnc2)cc1 (centres undefined) | > 97 | 3.29 | 1.84 | > 318 | > 173 | Activity (Trypanosoma cruzi [6]): 1070 nmol/min; Activity (Trypanosoma brucei): 3460 nmol/min |
| O=C(Cn1cnc([N+](=O)[O-])n1)Nc1nc(-c2ccc(Cl)cc2)cs1 | 973 | 0.102 | 4.06 | 98.8 | 24 |  |
| O=C(Cn1cnc([N+](=O)[O-])n1)Nc1ccc(N2CCCCC2)cc1 | 186 | 0.554 | 17 | 103 |  |  |
| CC(O)(Cn1cncn1)c1ccc(-n2ccnc2)cc1 (centres undefined) |  | 157 | 153 | > 372 |  |  |
| O=C(Cn1cnc([N+](=O)[O-])n1)Nc1nnc(-c2ccc(Cl)cc2)s1 | > 16.5 | 16.6 | 73.9 | > 274 |  |  |
| O=C(Cn1ccnc1[N+](=O)[O-])c1ccc(-c2ccccc2)cc1 |  | 14.2 | 76.5 | 9.7 |  |  |
| O=C(Cn1cnc([N+](=O)[O-])n1)c1ccc(-c2ccccc2)cc1 | 1160 | 0.188 | 1.75 | 220 | 125 |  |
| O=C(Cn1ccnc1[N+](=O)[O-])Nc1nc(-c2ccc(F)c(F)c2)cs1 | 15.6 | 3.99 | 10 | 62.1 |  |  |
| O=C(Cn1cnc([N+](=O)[O-])n1)c1ccc(F)cc1F | 206 | 1.19 | 34.1 | 246 |  |  |
| O=C(Cn1cncn1)c1ccc(-c2ccccc2)cc1 | 4.9 | 22.8 | 51.7 | 113 |  |  |
| CC(O)(Cn1cnc([N+](=O)[O-])n1)c1ccc(-c2ccccc2)cc1 (centres undefined) | 844 | 0.102 | 1.09 | 86 | 78.9 |  |
| N#Cc1ccc(-c2ccc(NC(=O)Cn3cnc([N+](=O)[O-])n3)cc2)cc1 | 1190 | 0.138 | 0.336 | 165 | 490 | remaining at 1 h, 1 µM [9]: 79.4%; remaining at 1 h, 1 µM [10]: 96.8%; Activity (Trypanosoma cruzi [4]): <4%; remaining at 1 h, 1 µM [11]: 84.8%; Activity (Trypanosoma cruzi [12]): Active; Activity (Trypanosoma cruzi [6]): 888 nmol/min; Ratio IC50 [13]: 2; Activity (Trypanosoma brucei): 3170 nmol/min; Activity (Mus musculus [7]): Non-toxic; IC50 [14]: 0.84 µM; remaining at 1 h, 1 µM [15]: 110%; IC50 [16]: 0.36 µM; Papp [17]: 18.7 ×10⁻⁶ cm/s |
| O=[N+]([O-])c1ncn(CC(O)(Cn2cncn2)c2ccc(-c3ccccc3)cc2)n1 (centres undefined) | 3810 | 0.033 | 2.88 | 127 | 44 | remaining at 1 h, 1 µM [9]: 77.6%; Kd [18]: 0.023 µM; remaining at 1 h, 1 µM [10]: 90.7%; Activity (Trypanosoma cruzi [4]): <4%; remaining at 1 h, 1 µM [11]: 106%; Activity (Trypanosoma cruzi [5]): 42.04; Activity (Trypanosoma cruzi [6]): 1160 nmol/min; Ratio IC50 (Trypanosoma cruzi [19]): 68; Activity (Trypanosoma brucei): 2680 nmol/min; Activity (Mus musculus [7]): Non-toxic; remaining at 1 h, 1 µM [15]: 102%; Papp [17]: 16.5 ×10⁻⁶ cm/s |
| O=[N+]([O-])c1ncn(CC(O)(Cn2cncn2)c2ccc(F)cc2F)n1 (centres undefined) | 220 | 1.17 | 26.6 | 258 |  | Kd [18]: 0.606 µM; Activity (Trypanosoma cruzi [4]): <4%; Activity (Trypanosoma cruzi [5]): 24.9; Activity (Trypanosoma cruzi [6]): 1180 nmol/min; Activity (Trypanosoma brucei): 3060 nmol/min; Activity (Mus musculus [7]): Non-toxic |
| O=C(Cn1cnc([N+](=O)[O-])n1)Nc1ccc(-c2ccc(Cl)cc2)cc1 | 2800 | 0.045 | 0.901 | 126 | 140 | Activity (Mus musculus [20]): Non-toxic; Activity (Trypanosoma cruzi [21]): Active; Ratio IC50 (Trypanosoma cruzi [19]): 45; Activity (Trypanosoma cruzi [22]): <4% |
| Cc1nc(-c2cccc(NC(=O)Cn3cnc([N+](=O)[O-])n3)c2)cs1 | 122 | 0.552 | 7.04 | 67.3 | 10 |  |
| Fc1ccc(C2(Cn3cncn3)Cn3ccnc3O2)c(F)c1 (centres undefined) | > 49.4 | 5.79 | 221 | > 286 |  |  |
| OC(Cn1cncn1)(Cn1cncn1)c1ccc(F)cc1F [FLUCONAZOLE] |  | 9.97 |  | > 294 |  |  |
| CC(O)(Cn1cncn1)c1ccc(-c2ccccc2)cc1 (centres undefined) | 162 | 0.706 | 65.6 | 114 | 1.74 |  |
| Cc1ccc(S(=O)(=O)NC(Cc2ccccc2)Cn2cnc([N+](=O)[O-])n2)cc1 (centres undefined) | 428 | 0.339 | 11.6 | 145 |  |  |
| CC1(c2ccc(-n3ccnc3)cc2)CO1 (centres undefined) |  | 188 | 76.2 | 277 |  |  |
